{"source": "patent US20250195714A1", "about": "“DEVICES AND METHODS OF TREATING WOUNDS” (University of Massachusetts, priority 2022, published 2025)", "key": {"[1]": {"system": "rhytidoplasty (face lift)", "conditions": "local TXA irrigation; first twenty-four hours after rhytidoplasty; cited from earlier work"}, "skin graft donor sites": {"system": "skin graft donor sites", "test": "Human patients, skin-graft donor site treated with TXA embedded dressings without a drain", "type": "in vivo", "protocol": "Human patients were treated with TXA embedded dressings. A 50 cm^2 partial thickness wound was generated with a dermatome, thereby creating the skin-graft donor site. […] Non-adherent sterile dressings (TIELLE™) were contacted with the solution and placed directly on the donor site dressing.\nThe wounds were covered with a semipermeable film ([…]™) without a drain. Normally a dermal drain is placed through the film into contact with the wound with the intention of collecting fluid. A total of 300 ml in 5 days is normally collected (60 ml per day=[…])."}, "scald injuries": {"system": "scald injuries", "test": "Scald injuries treated with similar TXA dressings", "type": "in vivo, Human", "protocol": "In particular, a child with a scald was treated with TIELLE™ containing TXA and the dressing was removed after ten days."}, "[2]": {"system": "keratinocyte and fibroblast cell cultures", "conditions": "short exposure to even high concentrations of topical TXA; cited from earlier work"}, "chronic ulcers": {"system": "chronic ulcers", "test": "Chronic ulcers treated with similar TXA dressings", "type": "in vivo, Human"}}, "note": "Entries after “also recorded” stand apart in the source; their conditions may differ."}
{"smiles": "NC[C@H]1CC[C@H](C(=O)O)CC1", "note": "[TXA, tranexamic acid]", "values": [{"measurement": "bleeding", "setting": "[1]", "value": "decrease bleeding"}, {"measurement": "drainage", "setting": "[1]", "value": "reduce drainage"}, {"measurement": "amount of exudate", "setting": "skin graft donor sites; 50 cm^2 partial thickness skin-graft donor site, one to two grams TXA in 10 ml normal saline on TIELLE dressing, TEGADERM film, no drain", "value": "reducing significantly the amount of exudate; also recorded: greatly reduce exudate"}, {"measurement": "bleeding", "setting": "skin graft donor sites; skin graft donor sites, topical TXA", "value": "little bleeding"}, {"measurement": "adverse effect of TXA", "setting": "skin graft donor sites; skin-graft donor site, topical TXA dressing", "value": "no adverse effect"}, {"measurement": "re-epithelialization of the wound", "setting": "skin graft donor sites; skin-graft donor site, at removal of original dressing (12-14 days, 8-16 days)", "value": "re-epithelialized skin surface without the need for placement of a further dressing; also recorded: In most cases the wound was fully epithelialized; also recorded: rapid and complete or near complete re-epithelialization"}, {"measurement": "reepithelization", "setting": "scald injuries", "value": "near complete reepithelization"}, {"measurement": "tolerance in vitro", "setting": "[2]", "value": "well tolerated"}, {"measurement": "reepithelization", "setting": "chronic ulcers", "value": "near complete reepithelization"}]}
